# Assay results taken from patent US12624023B2, “Sulfonylurea derivatives and uses thereof” (NodThera Limited, priority 2019, dated 2026).
# Experiments:
# [1] = system: IL-1β release upon NLRP3 activation in peripheral blood mononuclear cells (PBMC); test: PBMC IC50 determination assay (IL-1β release, LPS priming + ATP stimulation, HTRF); assay type: cell-based; conditions: PBMC from buffy coats; LPS 1 μg/ml 3 h, compound 30 min, ATP 5 mM 1 h; IL-1β by HTRF
# Protocol: The compounds of the present disclosure were tested for their inhibitory activity against IL-1β release upon NLRP3 activation in peripheral blood mononuclear cells (PBMC).
# PBMC were isolated from buffy coats by density gradient centrifugation on Histopaque-1077 (Sigma, cat no. 10771). Isolated cells were seeded into the wells (280,000 cells/well) of a 96-well plate and incubated for 3 h with lipopolysaccharide (LPS, 1 μg/ml diluted 1000× from a 1 mg/ml stock solution). The compounds of the present disclosure were added (a single compound per well) and the cells were incubated for 30 min. Next, the cells were stimulated with ATP (5 mM final concentration diluted 20× from a 100 mM stock solution) for 1 h and the cell culture media from the wells were collected for further analysis.
# (§1) The release of IL-1β into the media was determined by quantitative detection of IL-1β in the media using HTRF®, CisBio cat. No. 62HIL1BPEH. Briefly, cell culture supernatant were dispensed directly into the assay plate containing antibodies labelled with the HTRF® donor and acceptor. A microplate spectrophotometer (BMG) was used to detect signals at 655 nm and 620 nm. The detection range of IL-1β HTRF® was 39-6500 μg/ml.
# [2] = system: IL-1β release upon NLRP3 activation in human whole blood; test: Whole blood (WB) assay (IL-1β release, LPS priming + ATP stimulation, HTRF); assay type: cell-based; conditions: heparin, diluted 9:5 with media, LPS 1 μg/ml 3 h, compound 30 min, ATP 5 mM 1 h, IL-1β by HTRF
# Protocol: The compounds of the present disclosure were tested for their inhibitory activity against IL-1β release upon NLRP3 activation in human whole blood.
# Whole blood was drawn from single healthy donors and treated with sodium heparin anticoagulant. Blood was diluted with cell culture media at a 9:5 ratio, seeded in a 96-well plate and incubated for 3 h with lipopolysaccharide (LPS, 1 μg/ml final concentration diluted 1000× from a 1 mg/ml stock solution). The compounds of the present disclosure were added (a single compound concentration per well) and the blood was incubated for 30 min. Next, the blood was stimulated with ATP (5 mM final concentration diluted 20× from a 100 mM stock solution) for 1 h and the cell culture media from the wells were collected for further analysis.
# as §1, with “were diluted as appropriate to bring IL-1β levels within the HTRF® detection range ([…]) and subsequently” for “were”, “dispensed” for “dispensed directly”, “nm.” for “nm. The detection range of IL-1β HTRF® was 39-6500 μg/ml.”
IC50 [2],SMILES,IC50 [1]
1000 to 3000 nM,"CCc1cc(NC(=O)NS(=O)(=O)N(c2cnn(C)c2)C2CCCN(C)C2)c(CC)o1 (centres unmarked) [Compound 28, 3-(2,5-Diethylfuran-3-yl)-1-[(1-methyl-1H-pyrazol-4-yl)(1-methylpiperidin-3-yl)sulfamoyl]urea]",100 to 500 nM
1000 to 3000 nM,"CCc1cc(CC)c(NC(=O)NS(=O)(=O)N(c2cnn(C)c2)C2CCCN(C)C2)s1 (centres unmarked) [Compound 29, 3-(3,5-Diethylthiophen-2-yl)-1-[(1-methyl-1H-pyrazol-4-yl)(1-methylpiperidin-3-yl)sulfamoyl]urea]",100 to 500 nM
< 1000 nM,"Cc1sc2c(c1NC(=O)NS(=O)(=O)N(c1cnn(C)c1)C1CCCN(C)C1)CCC2 (centres unmarked) [Compound 32, 1-[(1-Methyl-1H-pyrazol-4-yl)(1-methylpiperidin-3-yl)sulfamoyl]-3-{2-methyl-4H,5H,6H-cyclopenta[b]thiophen-3-yl}urea]",100 to 500 nM
1000 to 3000 nM,"CC(C)c1sc(C2CC2)cc1NC(=O)NS(=O)(=O)N(c1cnn(C)c1)C1CCCN(C)C1 (centres unmarked) [Compound 37, 3-[5-Cyclopropyl-2-(propan-2-yl)thiophen-3-yl]-1-[(1-methyl-1H-pyrazol-4-yl)(1-methylpiperidin-3-yl)sulfamoyl]urea]",< 100 nM
1000 to 3000 nM,"CC(C)c1cc(NC(=O)NS(=O)(=O)N(c2cnn(C)c2)C2CCCN(C)C2)c(C2CC2)s1 (centres unmarked) [Compound 38, 3-[2-Cyclopropyl-5-(propan-2-yl)thiophen-3-yl]-1-[(1-methyl-1H-pyrazol-4-yl)(1-methylpiperidin-3-yl)sulfamoyl]urea]",< 100 nM
< 1000 nM,"CC(C)c1cc(NC(=O)NS(=O)(=O)N(c2cnn(C)c2)C2CCN(C)CC2)c(C(C)C)s1 [Compound 43, 3-[2,5-Bis(propan-2-yl)thiophen-3-yl]-1-[(1-methyl-1H-pyrazol-4-yl)(1-methyl-piperidin-4-yl)sulfamoyl]urea]",< 100 nM
1000 to 3000 nM,"CC(C)c1cc(NC(=O)NS(=O)(=O)N(c2cnn(C)c2)C2CCCN(C)C2)c(Cl)s1 (centres unmarked) [Compound 50, 3-[2-Chloro-5-(propan-2-yl)thiophen-3-yl]-1-[(1-methyl-1H-pyrazol-4-yl)(1-methylpiperidin-3-yl)sulfamoyl]urea]",500 to 1000 nM
1000 to 3000 nM,"CC(C)c1cc(C(C)C)c(NC(=O)NS(=O)(=O)N(c2cnn(C)c2)C2CCCN(C)C2)s1 (centres unmarked) [Compound 52, 3-[3,5-Bis(propan-2-yl)thiophen-2-yl]-1-[(1-methyl-1H-pyrazol-4-yl)(1-methyl-piperidin-3-yl)sulfamoyl]urea]",< 100 nM
1000 to 3000 nM,CC(C)c1cc(NC(=O)NS(=O)(=O)N(C[C@@H]2C[C@@H](F)CN2C)c2cnn(C)c2)c(C(C)C)s1 [Compound 53],< 100 nM
< 1000 nM,"CC(C)c1cc(NC(=O)NS(=O)(=O)N(c2cnn(C)c2)[C@@H]2CCCN(C)C2)c(C(C)C)s1 [Compound 54, 3-[2,5-Bis(propan-2-yl)thiophen-3-yl]-1-[(1-methyl-1H-pyrazol-4-yl)[(3R)-1-methylpiperidin-3-yl]sulfamoyl]urea]",< 100 nM
< 1000 nM,"CC(C)c1cc(NC(=O)NS(=O)(=O)N(c2cnn(C(C)C)c2)[C@@H]2CCCN(C)C2)c(C(C)C)s1 [Compound 55, 3-[2,5-Bis(propan-2-yl)thiophen-3-yl]-1-{[(3R)-1-methylpiperidin-3-yl][1-(propan-2-yl)-1H-pyrazol-4-yl]sulfamoyl}urea]",< 100 nM
< 1000 nM,"CC(C)c1cc(NC(=O)NS(=O)(=O)N(c2cnn(C)c2)[C@H]2CCCN(C)C2)c(C(C)C)s1 [Compound 56, 3-[2,5-Bis(propan-2-yl)thiophen-3-yl]-1-[(1-methyl-1H-pyrazol-4-yl)[(3S)-1-methylpiperidin-3-yl]sulfamoyl]urea]",< 100 nM
1000 to 3000 nM,"Cc1sc(C(C)C)cc1NC(=O)NS(=O)(=O)N(c1cnn(C)c1)[C@@H]1CCCN(C)C1 [Compound 57, 1-[(1-Methyl-1H-pyrazol-4-yl)[(3R)-1-methylpiperidin-3-yl]sulfamoyl]-3-[2-methyl-5-(propan-2-yl)thiophen-3-yl]urea]",100 to 500 nM
